{"source": "patent US20070196272A1", "about": "“ORAL DELIVERY OF THERAPEUTIC AGENTS USING TIGHT JUNCTION AGONISTS” (priority 2006, published 2007)", "key": {"PAR-2": {"biological_target": "T1, PAR-2 (Mus musculus, UniProt P55086)", "T1 construct": "Intracolonic infusion of a 5 μg dose of the PAR-2 agonist, SLIGRL; host or cells: colon in vivo (endogenous receptor)", "T1 sequence (P55086 26-399)": "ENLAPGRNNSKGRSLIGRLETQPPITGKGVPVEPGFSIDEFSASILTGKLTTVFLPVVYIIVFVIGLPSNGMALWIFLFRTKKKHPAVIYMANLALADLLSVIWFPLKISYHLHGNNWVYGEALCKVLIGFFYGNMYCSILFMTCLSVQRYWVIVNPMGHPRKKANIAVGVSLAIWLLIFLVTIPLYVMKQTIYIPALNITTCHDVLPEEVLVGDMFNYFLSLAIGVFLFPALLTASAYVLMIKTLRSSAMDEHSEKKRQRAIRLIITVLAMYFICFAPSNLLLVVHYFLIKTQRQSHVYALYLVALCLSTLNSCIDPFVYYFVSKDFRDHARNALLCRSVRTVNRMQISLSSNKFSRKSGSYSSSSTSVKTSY", "conditions": "intracolonic infusion, 5 μg dose; cited from earlier work"}, "Caco-2 cell monolayers [1]": {"system": "Caco-2 cell monolayers", "conditions": "ZOT 0.22 to 0.89×10^−10 mol/ml; as seen with paclitaxel; cited from earlier work"}, "[2]": {"conditions": "ZOT 4.4×10^−10 mol/kg; cited from earlier work"}, "[3]": {"conditions": "as seen with CsA after metabolic protection; cited from earlier work"}, "in vitro": {"assay": "in vitro", "conditions": "human, Caco-2", "protocol": "(§1) Caco-2 cells, a human colon adenocarcinoma cell line, were grown as monolayers for 21 days in Dulbecco's Modified Eagle's medium (1×) containing 10% fetal bovine serum, 1% non-essential amino acid solution, 1% penicillin-streptomycin and 2% glutamine at 37° C. in an atmosphere of 5% CO2 and 90% relative humidity. Caco-2 cells from passage numbers of 51 to 52 were seeded on permeable polycarbonate inserts (1 cm^2, 0.4 μm pore size) in 12 Transwell plates at a density of 80,000 cells/cm^2. The inserts were fed with media every other day until they were used for experiments 21 days after the initial seeding. The integrity of the cell monolayers was evaluated by measuring the transepithelial electrical resistance (TEER) values before the study using a Millicell®-ERS meter (Millipore Corp., Bedford, Mass.) with chopstick electrodes. […] The cell monolayers were washed twice with PBS prior to the transport experiments. After the wash, the plates were incubated for 30 min at 37° C., and the integrity of the cell monolayers was evaluated by measurement of TEER. The cell inserts were used in transport experiments when the TEER values reached >300 Ωcm^2.\n(§2) The insert was moved to a well containing fresh PBS every 10 min for 40 min.\n(§3) Papp was calculated according to the following equation: [formula] […]\n(§4) The percent enhancement ratio, ER (%), for the Papp was calculated from the formula, [formula] […]"}, "[4]": {"system": "intercellular tight junctions", "assay": "Ussing chamber model", "text": "Our recent observation that zonulin may represent a new member of the serine protease family whose target receptor seems to be a variant of the protease activated receptor (PAR)2, lead us to the observation that the first six amino acids following V. cholerae-mediated ZOT cleavage (AA 289-295 [FCIGRL]) closely resembles the active motif of PAR2 (SLIGRL). Therefore, the six-mer synthetic peptide FCIGRL (that we named AT1002) was generated."}, "[5]": {"conditions": "PI, BC 0.05% w/v, ID, not statistically enhanced"}, "[6]": {"conditions": "AT-1002 10, 20 and 40 mg/kg, PI, BC 0.05% w/v, ID", "protocol": "The effect of AT-1002 on the transport of [^14C]-innulin across the intestine was examined in mice. [^14C]-innulin (30 μCi/kg) was co-administered with AT-1002 (10, 20 and 40 mg/kg), protease inhibitors (i.e. bestatine (30 mg/kg) and E-64 (10 mg/kg)) and benzalkonium chloride (0.05% w/v) to rats (n=4-5 per group) via the intra-duodenal administration."}, "Caco-2 cell monolayers [7]": {"system": "Caco-2 cell monolayers", "conditions": "AT1002 5 mM", "protocol": "as §1, §2, §3, §4"}, "[8]": {"conditions": "for intestinal transport of [^3H]-cyclosporin A, enhancement: AT-1002 40 mg/kg with PI and BC 0.1% w/v, ID", "description": "Male Sprague-Dawley rats (230-280 g) were purchased from Harlan Laboratories (Indianapolis, Ind.). Rats were housed individually in cages and allowed to acclimate at least two days after arrival. Rats were fed Rat Chow and water ad libitum and maintained on a 12-h light: 12-h dark cycle. The protocol for the animal studies was approved by the School of Pharmacy, University of Maryland IACUC.\nMale Sprague-Dawley rats were fasted overnight prior to and during the study with free access to water. Prior to the administration of AT1002, the rats were anesthetized with an intra-peritoneal injection of ketamine (80 mg/kg) and xylazine (12 mg/kg), and the duodenum and jugular vein were cannulated. […] Blood samples (250 μl) were drawn via the jugular cannula into heparinized syringes at 0 (actual time point was −5 min before the administration), 20, 60, and 120 min into polypropylene tubes, centrifuged (13,000 rpm for 10 min) immediately and plasma was obtained. Scintillation cocktail was added and samples were analyzed for radioactivity by Beckman Coulter LS 6500 multi-purpose Scintillation counter.\nThe area under the plasma concentration-time curve (AUC0-t) was calculated using the linear trapezoidal rule. The highest observable concentration was defined as maximum concentration (Cmax). The percent enhancement ratio, ER (%), for the pharmacokinetic parameters was calculated from the formula, [formula]\n[^3H]-cyclosporin (120 μCi/kg) was co-administered with AT-1002 (40 mg/kg), protease inhibitors (i.e. bestatine (30 mg/kg) and E-64 (10 mg/kg)) and benzalkonium chloride (0.1% w/v) to rats (n=5 per group) via the intra-duodenal administration."}, "[9]": {"conditions": "AT-1002 10 mg/kg with bestatine 30 mg/kg and E-64 10 mg/kg, oral, each sampling time", "protocol": "The ability of AT-1002 on the transport of [^14C]-mannitol across the intestinal membrane was examined in mice. [^14C]-mannitol (30 μCi/kg) was co-administered with AT-1002 (10 mg/kg) and protease inhibitors (i.e. bestatine (30 mg/kg) and E-64 (10 mg/kg)) to mice (n=3 per group) via the oral administration."}}, "note": "Where two headings read alike, the source gives them in different places.", "data": [{"compound": "SLIGRL", "values": [{"measurement": "increase in the paracellular permeability of [^51C]-EDTA", "setting": "PAR-2", "result": 2, "unit": "fold"}]}, {"compound": "ZOT: 44.8 kDa protein (399 amino acids) of Vibrio cholerae that reversibly opens tight junctions", "values": [{"measurement": "transport enhancement across Caco-2 cell monolayers", "setting": "Caco-2 cell monolayers [1]", "result": "up to 30 fold"}, {"measurement": "bioavailability of oral insulin / serum glucose lowering", "setting": "[2]", "result": "sufficient to lower serum glucose concentrations to levels comparable to those obtained after parenteral injection"}]}, {"compound": "ΔG: 12 kDa fragment (AA 265-399) of ZOT, biologically active fragment", "values": [{"measurement": "increase in AUC", "setting": "[3]", "result": "≤ 50", "unit": "fold"}, {"measurement": "increase in Cmax", "setting": "[3]", "result": "up to 57 fold"}]}, {"compound": "OC[C@@H](O)[C@@H](O)[C@H](O)[C@H](O)CO", "note": "[Mannitol]", "values": [{"measurement": "Papp at 0.5 μCi/ml", "setting": "in vitro", "result": "0.686 ± 0.057", "unit": "×10⁻⁶ cm/s"}]}, {"compound": "H-FCIGRL-OH [AT1002, H—FCIGRL-OH]", "values": [{"measurement": "permeating effect on intercellular tight junctions", "setting": "[4]", "result": "retained the ZOT permeating effect"}, {"measurement": "intestinal membrane transport of [^14C]-mannitol, increase", "setting": "[5]; AT-1002 10 mg/kg", "result": 1.43, "unit": "fold"}, {"measurement": "intestinal membrane transport of [^14C]-mannitol, increase", "setting": "[5]; AT-1002 20 mg/kg", "result": 1.24, "unit": "fold"}, {"measurement": "intestinal membrane transport of [^14C]-mannitol, increase", "setting": "[5]; AT-1002 30 mg/kg", "result": 1.81, "unit": "fold"}, {"measurement": "intestinal membrane transport of [^14C]-innulin", "setting": "[6]", "result": "not enhanced"}, {"measurement": "CsA transport across Caco-2 cell monolayers, significance vs control", "setting": "Caco-2 cell monolayers [7]", "result": "No significant increases"}, {"measurement": "intestinal transport of [^3H]-cyclosporin A, enhancement", "setting": "[8]; 20 min", "result": 1.78, "unit": "fold"}, {"measurement": "intestinal transport of [^3H]-cyclosporin A, enhancement", "setting": "[8]; 60 min", "result": 1.55, "unit": "fold"}, {"measurement": "change in plasma concentration of CsA between 10 mg/kg and 40 mg/kg of AT1002", "setting": "[8]; each time point", "result": "No statistically significant change"}, {"measurement": "in vivo oral absorption of CsA", "setting": "[8]; in the presence of PI", "result": "significantly increased"}, {"measurement": "intestinal membrane transport of marker", "setting": "[9]", "result": "not enhanced"}]}]}
